# From the supplement of paper PMC10307832
# Tests used:
# Test in all cases: relative viability (nuclei count vs DMSO), 5 days (fraction); higher = more cells survive
# Pifithrin_alpha = compound: CC1=CC=C(C=C1)C(=O)CN2C3=C(CCCC3)SC2=N [Pifithrin_alpha]
# Procedure, shortened: (§1)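 Lung cancer cell lines in 1536-well plates were kept overnight at 37 °C, then pinned with five library-drug doses (not always all listed) spaced by √10 on vehicle-anchored plates. After 5 days without medium change, cells were fixed, permeabilised and Hoechst-stained in one step, imaged at 4×, and nuclei were counted with MetaXpress. Viability is treated-well nuclei divided by vehicle-well nuclei, taken as the median over plates. Plates passed only with control CV below 25% and at least one doubling.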
# Bemcentinib = compound: Nc1nc(Nc2ccc3c(c2)CC[C@@H](N2CCCC2)CC3)nn1-c1cc2c(nn1)-c1ccccc1CCC2 [Bemcentinib]
# Procedure, shortened: as §1
# Axitinib = compound: CNC(=O)c1ccccc1Sc1ccc2c(/C=C/c3ccccn3)n[nH]c2c1 [Axitinib]
# Procedure, shortened: as §1
Cell Line,relative viability (Pifithrin_alpha; 1 µM),relative viability (Pifithrin_alpha; 3.162 µM),relative viability (Pifithrin_alpha; 10 µM),relative viability (Pifithrin_alpha; 31.62 µM),relative viability (Pifithrin_alpha; 100 µM),relative viability (Bemcentinib; 0.04 µM),relative viability (Bemcentinib; 0.1265 µM),relative viability (Bemcentinib; 0.4 µM),relative viability (Bemcentinib; 1.265 µM),relative viability (Bemcentinib; 4 µM),relative viability (Axitinib; 0.005 µM),relative viability (Axitinib; 0.01581 µM),relative viability (Axitinib; 0.05 µM),relative viability (Axitinib; 0.1581 µM),relative viability (Axitinib; 0.5 µM)
HCC-44,0.819,0.911,0.911,0.736,0.856,0.984,1.03,1.01,1.02,0.988,1.01,0.971,0.977,0.987,0.988
LOU-NH91,0.774,0.911,0.878,0.731,0.765,0.912,0.955,1,0.984,0.997,0.989,0.796,1.05,0.973,1
NCI-H3122,0.982,0.999,0.965,0.745,1.02,–,1.06,0.977,1.06,1.06,0.973,0.985,1.02,1.02,1.11
NCI-H1975,0.861,0.642,0.665,0.623,0.598,0.867,1.07,1,0.93,0.973,1.02,0.927,0.89,0.943,0.985
NCI-H661,0.948,1.01,0.988,1.02,0.873,0.965,1.07,0.994,1.01,0.964,1.01,1.02,0.987,0.96,1.02
NCI-H1651,1.03,0.998,0.944,0.871,0.944,1.04,1.06,1.08,1.01,1.01,0.973,0.89,0.963,0.951,1
NCI-H647,0.949,0.916,0.889,0.722,0.849,1.06,1.09,0.989,0.971,1.03,1.14,0.97,1.03,0.968,1.15
HCC-78,0.669,0.892,0.815,0.694,0.823,0.752,0.926,1.07,0.791,0.957,0.978,1.02,0.893,0.936,0.867
NCI-H2126,0.638,0.862,0.884,0.85,0.822,1,1.03,1.03,1.04,1.11,0.979,0.991,0.993,1,0.953
NCI-H522,0.79,1.12,0.947,0.85,0.972,0.927,0.96,1.06,0.9,0.879,0.914,0.969,0.996,0.882,0.693
SK-LU-1,1.08,1.16,1.21,0.805,1.21,1.04,1.19,1.13,1.08,1.12,1.06,1.12,0.946,1.04,1.15
LC-2-ad,0.702,1,0.96,0.697,0.832,0.903,0.988,0.99,0.971,0.972,1,0.963,1.03,0.956,1.02
NCI-H23,0.847,0.846,0.959,0.582,0.787,0.92,1.24,1.13,0.838,1.06,1.02,0.954,1.15,0.926,0.97
NCI-H2228,0.99,1.03,0.97,0.93,1.05,0.8,1.13,1.05,0.96,1.22,1.09,0.943,1.05,1.05,1.03
NCI-H1623,0.905,0.924,0.834,0.677,0.803,0.956,0.935,0.971,1.03,0.929,1.12,0.945,0.884,1.02,0.984
SW 1573,1.04,1.01,1.09,0.787,0.981,0.912,1.06,1.1,0.921,0.968,0.982,1,1.09,0.867,1.08
HCC-15,0.938,1.02,0.931,0.674,0.808,0.964,1.13,1.05,1.07,1.07,1.06,0.99,1,0.98,0.947
